*1 amine or outer side, *2 acyl side, *3 side chain or, on linkers, in order; H or OH if unused. Where a SMILES comes first, the peptide text is derived from it. Bridges are numbered along the chain shown (N, C = ends). [ ]: non-standard residue; d: D form. The star is where a group is joined. hPhe(3-Cl-4-CF3) = N[C@@H](CCc1ccc(C(F)(F)F)c(Cl)c1)C(=O)O; NPrPhe(4-CF3) = CCCN[C@@H](Cc1ccc(C(F)(F)F)cc1)C(=O)O; X29 = Cc1ccc(C[C@@H](C(=O)[*:2])N(CC2CCCC2)[*:1])cc1; NEtPhe(4-Me) = CCN[C@@H](Cc1ccc(C)cc1)C(=O)O; NMeGly(cPent) = CN[C@H](C(=O)O)C1CCCC1; Hyp = O=C(O)[C@@H]1C[C@@H](O)CN1; NMeD = CN[C@@H](CC(=O)O)C(=O)O; NMeL = CN[C@@H](CC(C)C)C(=O)O; NMeV = CN[C@H](C(=O)O)C(C)C; Morpholide = C1CN(*)CCO1; NMeA = CN[C@@H](C)C(=O)O; Ac5c = NC1(C(=O)O)CCCC1; Aze = O=C(O)[C@@H]1CCN1; Ac4c = NC1(C(=O)O)CCC1; Sar = CNCC(=O)O
Key:
[1] = molecular target: GDP-bound NRAS wild-type protein (Homo sapiens, UniProt P01111); experiment: Binding to NRAS by surface plasmon resonance (SPR), Single Cycle Kinetics
Chain of GDP-bound NRAS wild-type protein (P01111 whole entry): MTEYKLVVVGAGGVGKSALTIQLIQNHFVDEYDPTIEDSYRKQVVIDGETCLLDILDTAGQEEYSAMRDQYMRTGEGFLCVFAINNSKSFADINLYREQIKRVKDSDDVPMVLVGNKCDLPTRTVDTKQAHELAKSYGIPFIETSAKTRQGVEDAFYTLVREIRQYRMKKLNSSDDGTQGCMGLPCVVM

[2] = molecular target: GDP-bound HRAS wild-type protein (Homo sapiens, UniProt P01112); experiment: Binding to HRAS by surface plasmon resonance (SPR), Single Cycle Kinetics
Chain of GDP-bound HRAS wild-type protein (P01112 whole entry): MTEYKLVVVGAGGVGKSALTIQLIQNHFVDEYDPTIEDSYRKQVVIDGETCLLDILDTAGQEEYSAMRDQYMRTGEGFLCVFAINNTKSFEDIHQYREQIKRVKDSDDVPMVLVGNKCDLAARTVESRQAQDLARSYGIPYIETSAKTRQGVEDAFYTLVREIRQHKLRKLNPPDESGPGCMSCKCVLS

Row | SMILES | NRAS/KRAS (ratio of KD for GDP-bound NRAS wild-type to KD for KRAS) ([1]; SPR) | HRAS/KRAS (ratio of KD for GDP-bound HRAS wild-type to KD for KRAS) ([2]; SPR) | further results
1 | CCC[C@H]1C(=O)N[C@@H]([C@@H](C)CC)C(=O)N(C)CC(=O)N(C)[C@H]2C/C=C\CCN(C2=O)[C@@H](Cc2ccc(C)cc2)C(=O)N(C)CC(=O)N[C@@H](CCc2cc(F)c(C(F)(F)F)c(F)c2)C(=O)N2C[C@H](OCC)C[C@H]2C(=O)N(C)C2(CCC2)C(=O)N(C)[C@@H](C2CCCC2)C(=O)N(C)[C@H](C(=O)N(C)C)CC(=O)N1C [PP1793] |  |  | NRAS/KRAS (ratio of KD value for NRAS to KD value for KRAS) ([1]; KD ratio, GDP-bound NRAS wild-type vs GDP-bound KRAS wild-type, SPR): A (a compound having 10 or more and less than 20 is denoted as A); HRAS/KRAS (ratio of KD value for HRAS to KD value for KRAS) ([2]; KD ratio, GDP-bound HRAS wild-type vs GDP-bound KRAS wild-type, SPR): B (a compound having 3 or more and less than 10 is denoted as B)
2 | CCCN1C(=O)[C@@H]2CCN2C(=O)[C@H](C)N(C)C(=O)[C@H]([C@@H](C)CC)NC(=O)[C@H](CC(C)C)N(C)C(=O)C[C@@H](C(=O)N(C)C)NC(=O)[C@H](C2CCCC2)N(C)C(=O)C2(CCCC2)NC(=O)[C@@H]2CCCN2C(=O)[C@H](CCc2ccc(C(F)(F)F)c(Cl)c2)NC(=O)CN(C)C(=O)[C@@H]1Cc1ccc(C(F)(F)F)cc1 [PP0379] ([NMeL]I[NMeA][Aze][NPrPhe(4-CF3)][Sar][hPhe(3-Cl-4-CF3)]P[Ac5c][NMeGly(cPent)]D-NMe2; lactam N-11) | C (A compound having a KD ratio of 0.1 or more and less than 3 is denoted as C) | B (a compound having 3 or more and less than 10 is denoted as B) | 
3 | CCO[C@@H]1C[C@H]2C(=O)NC3(CCC3)C(=O)N(C)[C@@H](C3CCCC3)C(=O)N(C)[C@H](C(=O)N3CCOCC3)CC(=O)N(C)[C@@H](CCOC)C(=O)N[C@@H]([C@@H](C)CC)C(=O)N(C)CC(=O)N(C)[C@H]3CCCCN(C3=O)[C@@H](Cc3ccc(C(F)(F)F)cc3)C(=O)N(C)CC(=O)N[C@@H](CCc3cc(F)c(C(F)(F)F)c(F)c3)C(=O)N2C1 [PP0720] |  |  | NRAS/KRAS (ratio of KD value with respect to GDP-bound NRAS wild-type protein to KD value with respect to KRAS) ([1]; SPR): C (A compound having a KD ratio of 0.1 or more and less than 3 is denoted as C); HRAS/KRAS (ratio of KD value with respect to GDP-bound HRAS wild-type protein to KD value with respect to KRAS) ([2]; SPR): B (a compound having 3 or more and less than 10 is denoted as B)
4 | CC[C@H](C)[C@@H]1NC(=O)[C@H](CC(C)C)N(C)C(=O)C[C@@H](C(=O)N2CCOCC2)N(C)C(=O)[C@H](C2CCCC2)N(C)C(=O)C2(CCCC2)NC(=O)[C@@H]2CCCN2C(=O)[C@H](CCc2ccc(C(F)(F)F)c(Cl)c2)NC(=O)CN(C)C(=O)[C@H](Cc2ccc(C)cc2)N(CC2CCCC2)C(=O)CN(C)C(=O)CN(C)C1=O [PP0096] ([NMeL]I[Sar][Sar][X29][Sar][hPhe(3-Cl-4-CF3)]P[Ac5c][NMeGly(cPent)][NMeD]-Morpholide; lactam N-11) | C (A compound having a KD ratio of 0.1 or more and less than 3 is denoted as C) | C (A compound having a KD ratio of 0.1 or more and less than 3 is denoted as C) | 
5 | C#CCN1CC(=O)N(C)[C@H]2C/C=C\CCN(C2=O)[C@@H](Cc2ccc(C)cc2)C(=O)N(C)CC(=O)N[C@@H](CCc2ccc(C(F)(F)F)c(Cl)c2)C(=O)N2C[C@H](OCC)C[C@H]2C(=O)NC2(CC(C)(C)C2)C(=O)N(C)[C@@H](C2CCCC2)C(=O)N(C)[C@H](C(=O)N(C)C)CC(=O)N(C)[C@@H](CCC)C(=O)N[C@@H](CC(C)C)C1=O [PP2526] |  |  | NRAS/KRAS (ratio of KD value with respect to GDP-bound NRAS wild-type protein to KD value with respect to KRAS) ([1]; class symbols): A (a compound having 10 or more and less than 20 is denoted as A); HRAS/KRAS (ratio of KD value with respect to GDP-bound HRAS wild-type protein to KD value with respect to KRAS) ([2]; class symbols): B (a compound having 3 or more and less than 10 is denoted as B)
6 | CCCN1C(=O)CN(C)C(=O)[C@@H]2CCN2C(=O)[C@H]([C@@H](C)CC)NC(=O)[C@H](CC(C)C)N(C)C(=O)C[C@@H](C(=O)N2CCOCC2)NC(=O)[C@H](C2CCCC2)N(C)C(=O)C2(CCC2)NC(=O)[C@@H]2C[C@@H](OCC)CN2C(=O)[C@H](CCc2ccc(C(F)(F)F)c(Cl)c2)NC(=O)CN(C)C(=O)[C@@H]1Cc1ccc(C(F)(F)F)cc1 [PP0342] ([NMeL]I[Aze][Sar][NPrPhe(4-CF3)][Sar][hPhe(3-Cl-4-CF3)][Hyp](Et)[Ac4c][NMeGly(cPent)]D-Morpholide; lactam N-11) | B (a compound having 3 or more and less than 10 is denoted as B) | B (a compound having 3 or more and less than 10 is denoted as B) | 
7 | CC[C@H](C)[C@@H]1NC(=O)[C@H](CC(C)C)N(C)C(=O)C[C@@H](C(=O)N2CCOCC2)N(C)C(=O)[C@H](C(C)C)N(C)C(=O)C2(CCCC2)NC(=O)[C@@H]2CCCN2C(=O)[C@H](CCc2ccc(C(F)(F)F)c(Cl)c2)NC(=O)CN(C)C(=O)[C@H](Cc2ccc(C)cc2)N(CC)C(=O)CN(C)C(=O)CN(C)C1=O [PP0044] ([NMeL]I[Sar][Sar][NEtPhe(4-Me)][Sar][hPhe(3-Cl-4-CF3)]P[Ac5c][NMeV][NMeD]-Morpholide; lactam N-11) | C (A compound having a KD ratio of 0.1 or more and less than 3 is denoted as C) | C (A compound having a KD ratio of 0.1 or more and less than 3 is denoted as C) | 
